Measured values reported in patent publication US12492337B2, “Fluorescent probe, preparation method therefor and use thereof” (FLUORESCENCE DIAGNOSIS (SHANGHAI) BIOTECH COMPANY, priority 2017, dated 2025).

Legend:
[1] = Quantum yield of free probe not reacted with protein tag; format: physicochemical
Description: (§1) A probe was mixed with a corresponding HaloTag protein tag to obtain a mixed sample. The final concentration of the probe in the mixed sample was 5 μM and the final concentration of the protein tag was 10 μM. The mixed sample was incubated at 37° C. for 1 hour, and the sample was detected using a fluorescence spectrophotometer.

[2] = Viscosity responsiveness: fluorescence intensity in glycerol versus methanol; format: physicochemical; conditions: fluorescence intensity in glycerol to that in methanol
Summary of the method: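 At 25 °C, with the same dye concentration and excitation wavelength, maximum emission intensity in glycerol was compared with intensity in methanol, giving a ratio. Dye concentrations ranged from 1×10^−7 M to 1×10^−5 M.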

[3] = tested on: HaloTag protein tags in different subcellular organelles of Hela cells; assay: Labeling HaloTag protein tags in different subcellular organelles of Hela cells (Example 90); format: cell-based; conditions: 0.2 μM probe, 2 hours, no washing; cytoskeleton, mitochondria, nucleus, Golgi, whole cells, lysosomes
Description: In order to verify that probe 57, probe 59, probe 60, probe 61, probe 62, and probe 63 can be used to label target proteins located in different organelles. Hela cells were used as examples to detect the effect of probes on labeling HaloTag protein tags in different subcellular organelles. Hela cells were implanted 5000 cells per well in 96-well glass-bottom cell culture plates. After 14 hours, lipo2000 kit was used to transfect the plasmids localized by HaloTag protein tags in different organelles. The original culture medium was removed 24 hours after transfection, and the cells were washed twice with a phenol red-free DMEM medium, and incubated for 2 hours in a phenol red-free medium containing 0.2 μM probes, and the effect of cell labelling was detected by imaging using a Leica TCS-8 confocal microscope.

[4] = tested on: fusion protein CX43-HaloTag; assay: Tracing assembly of CX43-HaloTag intercellular channels in Hela cells (Example 94); format: cell-based; conditions: 1 μM probe added after labeling with probe 61 and washing
From the text: To verify that the probe can be used to monitor the assembly and degradation of biomacromolecules in mammalian cells in real time, Hela cells were used as an example to detect the process of tracing, by a probe, the assembly of intercellular protein CX43 to form intercellular channels in mammalian cells. The C-terminus of CX43 gene was fused with HaloTag gene, and a Hela cell line stably expressing the fusion protein CX43-HaloTag was constructed and obtained by lentiviral infection technology. Hela-CX43-HaloTag cell lines were implanted in a 20 mm glass-bottom cell culture dish 10 hours before the probe labeling. When labeling, the probe 61 μM was first diluted to 2 μM with phenol red-free DMEM medium and replaced the original cell culture medium. The cells were incubated in a 37° C. carbon dioxide incubator for 1 hour. Thereafter, the cells were washed twice with fresh phenol red-free DMEM medium, and the unbound probe 61 was removed at intervals of 2 min. Then, a DMEM phenol-free medium containing 1 μM probe 57 was added to label the cells, and a Leica SP8 confocal microscope was used to monitor the fluorescence intensity and position changes of labeled cells at the corresponding fluorescence channels of probe 61 and probe 57 for a long time, which are shown in FIGS. 17A and 17B, respectively. […]

HaloTag protein tag = assay: Probe mixed with HaloTag protein tag, fluorescence spectrophotometer (Example 86); format: biochemical; conditions: 5 μM probe, 10 μM protein tag, 37° C., 1 hour; for Fluorescence enhancement: fluorescence activation multiple after binding protein tag; for Emission/nm: fluorescence emission wavelength
Description: as §1

Hela-WT cells = assay: Confocal imaging of Hela-WT cells without protein tag (Example 89); format: cell-based; conditions: 5 μM probe, 2 hours, 37° C., confocal microscope
Description: (§2) Hela cells are used as an example to test the labeling effect of compounds in mammalian cells. Hela cells and Hela-WT cells (Hela primitive cell, without a protein tag expressed) stably expressing HaloTag protein tags were planted in 14 mm 96-well glass bottom cell culture plates and stabilized for 10 hours. Probe 57, probe 59, probe 60, probe 61, probe 69, probe 75, probe 76, probe 82 were added to the culture medium and diluted to 5 μM, respectively. The cells were incubated in a 37° C. carbon dioxide incubator for 2 hours, and the fluorescence changes of the labeled cells were detected by imaging with a Leica TPS-8 confocal microscope.

[5] = tested on: Hela cells stably expressing HaloTag protein tags; assay: Confocal imaging of labeled Hela cells stably expressing HaloTag protein tags (Example 89); format: cell-based; conditions: Homo sapiens, 5 μM probe, 2 hours, 37° C., confocal microscope, read-out: fluorescence signal enhancement in Hela cells expressing the protein tag
Description: as §2

[6] = tested on: HaloTag protein tag expressed in the liver; assay: Labeling of HaloTag protein tag expressed in mouse liver, in vivo imaging system (Example 92); set-up: species or system mice; conditions: 0.4 μM probe in 200 ul PBS via tail vein, 6 hours later
Description: First, a plasmid pcdna3.1-HaloTag (sample group) expressing the HaloTag protein tag and a control plasmid pcdna3.1-CAT (control group) not expressing the HaloTag protein tag were introduced into mice. This method is to dissolve the plasmid in a large volume of solution and inject it into mice quickly through tail vein injection. The mouse liver absorbs DNA and then expresses the target protein. 20 hours after the plasmid injection, 0.4 μM probe 77 dissolved in 200 ul of PBS was injected into the mice via tail vein injection to label the HaloTag protein tag; 6 hours later, the mice were dissected out, and the fluorescence differences in the liver parts of different mouse samples were detected by KODAK multi-spectral in vivo imaging system.
The fluorescence of the liver of the control plasmid pcdna3.1-CAT injected with the probe 77 was very low, which was close to the background fluorescence level of the blank liver without the probe injected, and the liver of the HaloTag plasmid pcdna3.1-HaloTag injected with the probe 77 had strong fluorescence, and the signal intensity was more than 20 times that of the control group.

SNAP protein = assay: Labeling speed and fluorescence intensity, purified SNAP protein, microplate reader (Example 95); format: biochemical
Description: To verify that the probe-labeled HaloTag protein tag has a faster labeling speed and higher fluorescence intensity than the probe-labeled SNAP protein tag, a probe 48-labeled HaloTag protein tag and a reference probe 85-labeled SNAP protein tag were taken as examples (probe 48 and reference probe 85 have the same fluorescent dye portion). When labeling, the purified HaloTag protein and SNAP protein were first diluted to 7.5 μM with PBS.
Probe 48 and reference probe 85 were diluted to 15 μM with PBS, and 20 μL of probe 48 was added to 80 μL of HaloTag protein and mixed, 20 μL of reference probe 85 was added to 80 μL of SNAP protein and mixed, and a microplate reader was used to monitor the changes in fluorescence intensity of the two solutions excited at 620 nm and emitted at 650 nm, which lasted for two hours.

SMILES	The quantum yield of the free probe [1]	ratio [2]	The quantum yield after binding to Halo-tag (HaloTag protein tag)	Emission/nm (HaloTag protein tag)	effect of cell labelling of subcellular organelles [3]	fluorescent signal in the probe 57 channel when just added [4]	Fluorescence enhancement (HaloTag protein tag)	fluorescent signal in Hela-WT cells (Hela-WT cells)	fold induction at 5 µM [5]	liver fluorescence signal intensity relative to the control group ([6]; mice with pcdna3.1-HaloTag)	fluorescence of the liver of control plasmid pcdna3.1-CAT mice ([6]; mice without HaloTag expression)	labeling time of the SNAP protein tag labeled by the probe (SNAP protein; 20 μL 15 μM probe + 80 μL 7.5 μM protein in PBS, excited at 620 nm, emitted at 650 nm)	fluorescence intensity lower than the former (probe 48-labeled HaloTag) by (SNAP protein; same conditions as probe 48 with HaloTag protein)
CN(C)c1ccc(/C=C(\C#N)C(=O)NCCOCCOCCCCCCCl)cc1 [Probe 57]	<0.001	762	0.56	480 nm	clearly display a variety of subcellular organelle structures without washing	fluorescent signal could not be detected	1026	no corresponding fluorescent signal could be detected	~200				
N#C/C(=C\c1cc2c3c(c1)CCCN3CCC2)C(=O)NCCOCCOCCCCCCCl [Probe 59]	<0.001	370	0.45	500 nm	clearly display a variety of subcellular organelle structures without washing		498	no corresponding fluorescent signal could be detected	~200				
CN(C)c1ccc2cc(/C=C(\C#N)C(=O)NCCOCCOCCCCCCCl)sc2c1 [Probe 63]	0.0015	531	0.70	570 nm	clearly display a variety of subcellular organelle structures without washing		486						
CN(C)c1cc2c(s1)-c1sc(/C=C(\C#N)C(=O)OCCOCCOCCCCCCCl)cc1C2(C)C [Probe 77]	0.0014	479	0.53	652 nm			721			more than 20 times	very low		
CN(CCOC(=O)NCc1ccc(COc2nc(N)nc3[nH]cnc23)cc1)c1cc2c(s1)-c1sc(/C=C(\C#N)C(=O)OC(C)(C)C)cc1C2(C)C [Reference Probe85, reference compound]	<0.001	510	0.32	645 nm			321					about 7 min	≥ 1 time

The next lines start with results.

The quantum yield of the free probe [1]	ratio [2]	The quantum yield after binding to Halo-tag (HaloTag protein tag)	Emission/nm (HaloTag protein tag)	SMILES	effect of cell labelling of subcellular organelles [3]	fluorescent signal in the probe 57 channel when just added [4]	Fluorescence enhancement (HaloTag protein tag)	fluorescent signal in Hela-WT cells (Hela-WT cells)	fold induction at 5 µM [5]	liver fluorescence signal intensity relative to the control group ([6]; mice with pcdna3.1-HaloTag)	fluorescence of the liver of control plasmid pcdna3.1-CAT mice ([6]; mice without HaloTag expression)	labeling time of the SNAP protein tag labeled by the probe (SNAP protein; 20 μL 15 μM probe + 80 μL 7.5 μM protein in PBS, excited at 620 nm, emitted at 650 nm)	fluorescence intensity lower than the former (probe 48-labeled HaloTag) by (SNAP protein; same conditions as probe 48 with HaloTag protein)
0.0011	1199	0.65	520 nm	CN1CCSc2cc(/C=C(\C#N)C(=O)NCCOCCOCCCCCCCl)ccc21 [Probe 60]	clearly display a variety of subcellular organelle structures without washing		751	no corresponding fluorescent signal could be detected	~200				
<0.001	711	0.57	590 nm	CN(C)c1ccc2nc(/C=C(\C#N)C(=O)NCCOCCOCCCCCCCl)ccc2c1 [Probe 62]	clearly display a variety of subcellular organelle structures without washing		592						
<0.001	317	0.47	610 nm	CN(C)c1ccc2nc(/C=C(\C#N)C(=O)NCCOCCOCCCCCCCl)oc2c1 [Probe 69]			491	no corresponding fluorescent signal could be detected	~200				
0.0021	500	0.56	620 nm	CN(C)c1cc2sc3cc(/C=C(\C#N)C(=O)NCCOCCOCCCCCCCl)sc3c2s1 [Probe 75]			589	no corresponding fluorescent signal could be detected	~200				
0.0011	386	0.58	640 nm	CN(C)c1cc2c(s1)-c1sc(/C=C(\C#N)C(=O)NCCOCCOCCCCCCCl)cc1C2(C)C [Probe 76]			666	no corresponding fluorescent signal could be detected	~200				
<0.001	475	0.51	660 nm	CN(C)c1cc2c(s1)-c1sc(/C=C(\C#N)C(=S)NCCOCCOCCCCCCCl)cc1C2(C)C [Probe 82]			781	no corresponding fluorescent signal could be detected	~200				
